Reference: the NIST ThermoML archive (doi:10.1021/je400274f)
Several values for one entry are separate records, joined by “and”; a condition that tells them apart may be missing. Equal entries are not always repeated. Numbers after ± are expanded uncertainties.

Conditions: 283.15 K; 101.33 kPa; Liquid; Concentric cylinders viscometry

Row | SMILES | viscosity [mPa·s]
1 | CCCCCCCCC(C)C [2-methyldecane] | 1.37 ± 0.02
2 | CCCCCCCC(C)C [2-methylnonane] | 1.037 ± 0.022
3 | CCCCCCC(C)C [2-methyloctane] | 0.776 ± 0.017
4 | CCCCCCCCCCCCCC(C)C [2-methylpentadecane] | 4.6 ± 0.29
5 | CCC(C)CC(C)CC (configuration not stated) [3,5-dimethylheptane] | 0.792 ± 0.018
6 | CCC(C)CCC(C)CC (configuration not stated) [3,6-dimethyloctane] | 0.988 ± 0.022
7 | CCCCCCCCC(C)CC (configuration not stated) [3-methylundecane] | 1.73 ± 0.03
8 | CCCCC(C)CCC (configuration not stated) [4-methyloctane] | 0.719 ± 0.021
9 | CCCCCCCCCC(C)CCCCCC (configuration not stated) [7-methylhexadecane] | 5.36 ± 0.52

Same assay, conditions: 283.15 K; 101.33 kPa; Liquid; Pulse-echo method

Row | SMILES | speed of sound [m/s]
10 | CCCCCCCCC(C)C [2-methyldecane] | 1295.5 ± 1.3
11 | CCCCCCCC(C)C [2-methylnonane] | 1271.4 ± 1.5
12 | CCCCCCC(C)C [2-methyloctane] | 1242.2 ± 1.5
13 | CCCCCCCCCCCCCC(C)C [2-methylpentadecane] | 1378.7 ± 6.1
14 | CCC(C)CC(C)CC (configuration not stated) [3,5-dimethylheptane] | 1245.1 ± 1.9
15 | CCC(C)CCC(C)CC (configuration not stated) [3,6-dimethyloctane] | 1277.8 ± 1.7
16 | CCCCCCCCC(C)CC (configuration not stated) [3-methylundecane] | 1330.2 ± 2.3
17 | CCCCC(C)CCC (configuration not stated) [4-methyloctane] | 1254.9 ± 1.5
18 | CCCCCCCCCC(C)CCCCCC (configuration not stated) [7-methylhexadecane] | 1392.5 ± 2.3

Same assay, conditions: 283.15 K; 101.33 kPa; Liquid; Vibrating tube method

Row | SMILES | mass density
19 | CCCCCCCCC(C)C [2-methyldecane] | 745.7 ± 0.3 kg/m3 and 745.8 ± 0.3 kg/m3
20 | CCCCCCCC(C)C [2-methylnonane] | 734.7 ± 0.4 kg/m3 and 734.5 ± 0.3 kg/m3
21 | CCCCCCC(C)C [2-methyloctane] | 723.2 ± 0.5 kg/m3 and 723.2 ± 0.3 kg/m3
22 | CCCCCCCCCCCCCC(C)C [2-methylpentadecane] | 782.2 ± 4.9 kg/m3 and 781.8 ± 4.9 kg/m3
23 | CCC(C)CC(C)CC (configuration not stated) [3,5-dimethylheptane] | 734.1 ± 0.5 kg/m3 and 734 ± 0.4 kg/m3
24 | CCC(C)CCC(C)CC (configuration not stated) [3,6-dimethyloctane] | 746.6 ± 0.4 kg/m3 and 746.6 ± 0.5 kg/m3
25 | CCCCCCCCC(C)CC (configuration not stated) [3-methylundecane] | 758.6 ± 0.6 kg/m3 and 758.3 ± 0.6 kg/m3
26 | CCCCC(C)CCC (configuration not stated) [4-methyloctane] | 727.5 ± 0.4 kg/m3 and 727.6 ± 0.3 kg/m3
27 | CCCCCCCCCC(C)CCCCCC (configuration not stated) [7-methylhexadecane] | 787.6 ± 0.6 kg/m3

Same assay, conditions: 293.15 K; 101.33 kPa; Liquid; Concentric cylinders viscometry

Row | SMILES | viscosity [mPa·s]
28 | CCCCCCCCC(C)C [2-methyldecane] | 1.15 ± 0.04
29 | CCCCCCCC(C)C [2-methylnonane] | 0.887 ± 0.02
30 | CCCCCCC(C)C [2-methyloctane] | 0.676 ± 0.015
31 | CCCCCCCCCCCCCC(C)C [2-methylpentadecane] | 3.52 ± 0.24
32 | CCC(C)CC(C)CC (configuration not stated) [3,5-dimethylheptane] | 0.688 ± 0.016
33 | CCC(C)CCC(C)CC (configuration not stated) [3,6-dimethyloctane] | 0.846 ± 0.018
34 | CCCCCCCCC(C)CC (configuration not stated) [3-methylundecane] | 1.43 ± 0.03
35 | CCCCC(C)CCC (configuration not stated) [4-methyloctane] | 0.628 ± 0.021
36 | CCCCCCCCCC(C)CCCCCC (configuration not stated) [7-methylhexadecane] | 4 ± 0.4

Same assay, conditions: 293.15 K; 101.33 kPa; Liquid; Pulse-echo method

Row | SMILES | speed of sound [m/s]
37 | CCCCCCCCC(C)C [2-methyldecane] | 1256.2 ± 1.3
38 | CCCCCCCC(C)C [2-methylnonane] | 1231.1 ± 1.5
39 | CCCCCCC(C)C [2-methyloctane] | 1201.3 ± 1.5
40 | CCCCCCCCCCCCCC(C)C [2-methylpentadecane] | 1341 ± 6.1
41 | CCC(C)CC(C)CC (configuration not stated) [3,5-dimethylheptane] | 1203.3 ± 1.9
42 | CCC(C)CCC(C)CC (configuration not stated) [3,6-dimethyloctane] | 1236.7 ± 1.7
43 | CCCCCCCCC(C)CC (configuration not stated) [3-methylundecane] | 1291 ± 2.3
44 | CCCCC(C)CCC (configuration not stated) [4-methyloctane] | 1213 ± 1.5
45 | CCCCCCCCCC(C)CCCCCC (configuration not stated) [7-methylhexadecane] | 1354.9 ± 2.3

Same assay, conditions: 293.15 K; 101.33 kPa; Liquid; Vibrating tube method

Row | SMILES | mass density
46 | CCCCCCCCC(C)C [2-methyldecane] | 738.4 ± 0.3 kg/m3 and 738.3 ± 0.3 kg/m3
47 | CCCCCCCC(C)C [2-methylnonane] | 726.9 ± 0.3 kg/m3 and 727.1 ± 0.4 kg/m3
48 | CCCCCCC(C)C [2-methyloctane] | 715.4 ± 0.3 kg/m3 and 715.3 ± 0.4 kg/m3
49 | CCCCCCCCCCCCCC(C)C [2-methylpentadecane] | 774.9 ± 4.9 kg/m3 and 775 ± 4.9 kg/m3
50 | CCC(C)CC(C)CC (configuration not stated) [3,5-dimethylheptane] | 726.2 ± 0.4 kg/m3 and 726.3 ± 0.5 kg/m3
51 | CCC(C)CCC(C)CC (configuration not stated) [3,6-dimethyloctane] | 738.9 ± 0.5 kg/m3 and 738.9 ± 0.4 kg/m3
52 | CCCCCCCCC(C)CC (configuration not stated) [3-methylundecane] | 751.1 ± 0.6 kg/m3 and 751.3 ± 0.6 kg/m3
53 | CCCCC(C)CCC (configuration not stated) [4-methyloctane] | 719.8 ± 0.3 kg/m3 and 719.7 ± 0.4 kg/m3
54 | CCCCCCCCCC(C)CCCCCC (configuration not stated) [7-methylhexadecane] | 780.7 ± 0.6 kg/m3

Same assay, conditions: 303.15 K; 101.33 kPa; Liquid; Concentric cylinders viscometry

Row | SMILES | viscosity [mPa·s]
55 | CCCCCCCCC(C)C [2-methyldecane] | 0.977 ± 0.021
56 | CCCCCCCC(C)C [2-methylnonane] | 0.768 ± 0.017
57 | CCCCCCC(C)C [2-methyloctane] | 0.594 ± 0.013
58 | CCCCCCCCCCCCCC(C)C [2-methylpentadecane] | 2.77 ± 0.16
59 | CCC(C)CC(C)CC (configuration not stated) [3,5-dimethylheptane] | 0.604 ± 0.014
60 | CCC(C)CCC(C)CC (configuration not stated) [3,6-dimethyloctane] | 0.733 ± 0.016
61 | CCCCCCCCC(C)CC (configuration not stated) [3-methylundecane] | 1.2 ± 0.02
62 | CCCCC(C)CCC (configuration not stated) [4-methyloctane] | 0.554 ± 0.021
63 | CCCCCCCCCC(C)CCCCCC (configuration not stated) [7-methylhexadecane] | 3.09 ± 0.28

Same assay, conditions: 303.15 K; 101.33 kPa; Liquid; Pulse-echo method

Row | SMILES | speed of sound [m/s]
64 | CCCCCCCCC(C)C [2-methyldecane] | 1217.1 ± 1.3
65 | CCCCCCCC(C)C [2-methylnonane] | 1191.3 ± 1.5
66 | CCCCCCC(C)C [2-methyloctane] | 1160.7 ± 1.5
67 | CCCCCCCCCCCCCC(C)C [2-methylpentadecane] | 1303.8 ± 6.1
68 | CCC(C)CC(C)CC (configuration not stated) [3,5-dimethylheptane] | 1162 ± 1.9
69 | CCC(C)CCC(C)CC (configuration not stated) [3,6-dimethyloctane] | 1196.2 ± 1.7
70 | CCCCCCCCC(C)CC (configuration not stated) [3-methylundecane] | 1252.2 ± 2.3
71 | CCCCC(C)CCC (configuration not stated) [4-methyloctane] | 1171.6 ± 1.5
72 | CCCCCCCCCC(C)CCCCCC (configuration not stated) [7-methylhexadecane] | 1317.7 ± 2.3

Same assay, conditions: 303.15 K; 101.33 kPa; Liquid; Vibrating tube method

Row | SMILES | mass density
73 | CCCCCCCCC(C)C [2-methyldecane] | 730.9 ± 0.3 kg/m3
74 | CCCCCCCC(C)C [2-methylnonane] | 719.3 ± 0.3 kg/m3 and 719.4 ± 0.4 kg/m3
75 | CCCCCCC(C)C [2-methyloctane] | 707.6 ± 0.3 kg/m3 and 707.4 ± 0.4 kg/m3
76 | CCCCCCCCCCCCCC(C)C [2-methylpentadecane] | 767.9 ± 4.8 kg/m3 and 768 ± 4.8 kg/m3
77 | CCC(C)CC(C)CC (configuration not stated) [3,5-dimethylheptane] | 718.4 ± 0.4 kg/m3 and 718.4 ± 0.5 kg/m3
78 | CCC(C)CCC(C)CC (configuration not stated) [3,6-dimethyloctane] | 731.2 ± 0.5 kg/m3 and 731.1 ± 0.4 kg/m3
79 | CCCCCCCCC(C)CC (configuration not stated) [3-methylundecane] | 743.9 ± 0.6 kg/m3 and 744 ± 0.6 kg/m3
80 | CCCCC(C)CCC (configuration not stated) [4-methyloctane] | 711.9 ± 0.3 kg/m3 and 711.7 ± 0.4 kg/m3
81 | CCCCCCCCCC(C)CCCCCC (configuration not stated) [7-methylhexadecane] | 773.9 ± 0.6 kg/m3 and 773.8 ± 0.6 kg/m3

Same assay, conditions: 313.15 K; 101.33 kPa; Liquid; Concentric cylinders viscometry

Row | SMILES | viscosity [mPa·s]
82 | CCCCCCCCC(C)C [2-methyldecane] | 0.83 ± 0.017
83 | CCCCCCCC(C)C [2-methylnonane] | 0.653 ± 0.015
84 | CCCCCCC(C)C [2-methyloctane] | 0.499 ± 0.011
85 | CCCCCCCCCCCCCC(C)C [2-methylpentadecane] | 2.24 ± 0.16
86 | CCC(C)CC(C)CC (configuration not stated) [3,5-dimethylheptane] | 0.508 ± 0.012
87 | CCC(C)CCC(C)CC (configuration not stated) [3,6-dimethyloctane] | 0.62 ± 0.014
88 | CCCCCCCCC(C)CC (configuration not stated) [3-methylundecane] | 1.01 ± 0.02
89 | CCCCC(C)CCC (configuration not stated) [4-methyloctane] | 0.453 ± 0.08
90 | CCCCCCCCCC(C)CCCCCC (configuration not stated) [7-methylhexadecane] | 2.47 ± 0.22

Same assay, conditions: 313.15 K; 101.33 kPa; Liquid; Pulse-echo method

Row | SMILES | speed of sound [m/s]
91 | CCCCCCCCC(C)C [2-methyldecane] | 1178.8 ± 1.3
92 | CCCCCCCC(C)C [2-methylnonane] | 1152 ± 1.5
93 | CCCCCCC(C)C [2-methyloctane] | 1120.7 ± 1.5
94 | CCCCCCCCCCCCCC(C)C [2-methylpentadecane] | 1267.3 ± 6.1
95 | CCC(C)CC(C)CC (configuration not stated) [3,5-dimethylheptane] | 1121.3 ± 1.9
96 | CCC(C)CCC(C)CC (configuration not stated) [3,6-dimethyloctane] | 1156.3 ± 1.9
97 | CCCCCCCCC(C)CC (configuration not stated) [3-methylundecane] | 1214 ± 2.3
98 | CCCCC(C)CCC (configuration not stated) [4-methyloctane] | 1130.8 ± 1.5
99 | CCCCCCCCCC(C)CCCCCC (configuration not stated) [7-methylhexadecane] | 1281.3 ± 2.3

Same assay, conditions: 313.15 K; 101.33 kPa; Liquid; Vibrating tube method

Row | SMILES | mass density
100 | CCCCCCCCC(C)C [2-methyldecane] | 723.5 ± 0.3 kg/m3 and 723.2 ± 0.3 kg/m3
101 | CCCCCCCC(C)C [2-methylnonane] | 711.6 ± 0.3 kg/m3 and 711.7 ± 0.4 kg/m3
102 | CCCCCCC(C)C [2-methyloctane] | 699.6 ± 0.3 kg/m3 and 699.4 ± 0.4 kg/m3
103 | CCCCCCCCCCCCCC(C)C [2-methylpentadecane] | 761 ± 4.7 kg/m3
104 | CCC(C)CC(C)CC (configuration not stated) [3,5-dimethylheptane] | 710.5 ± 0.4 kg/m3 and 710.5 ± 0.5 kg/m3
105 | CCC(C)CCC(C)CC (configuration not stated) [3,6-dimethyloctane] | 723.5 ± 0.6 kg/m3 and 723.3 ± 0.4 kg/m3
106 | CCCCCCCCC(C)CC (configuration not stated) [3-methylundecane] | 736.6 ± 0.6 kg/m3 and 736.7 ± 0.6 kg/m3
107 | CCCCC(C)CCC (configuration not stated) [4-methyloctane] | 703.9 ± 0.3 kg/m3 and 703.7 ± 0.4 kg/m3
108 | CCCCCCCCCC(C)CCCCCC (configuration not stated) [7-methylhexadecane] | 767 ± 0.6 kg/m3 and 766.9 ± 0.6 kg/m3

Same assay, conditions: 323.15 K; 101.33 kPa; Liquid; Concentric cylinders viscometry

Row | SMILES | viscosity [mPa·s]
109 | CCCCCCCCC(C)C [2-methyldecane] | 0.736 ± 0.015
110 | CCCCCCCC(C)C [2-methylnonane] | 0.595 ± 0.013
111 | CCCCCCC(C)C [2-methyloctane] | 0.47 ± 0.011
112 | CCCCCCCCCCCCCC(C)C [2-methylpentadecane] | 1.85 ± 0.11
